“Also recorded” adds a separate entry of the source. One block for each molecule: values may come before it. Non-standard residues stand in square brackets, D forms with d. Residues, ends and D or L forms follow the SMILES beside them. *: point of attachment. Asu = N[C@@H](CCCCCC(=O)O)C(=O)O; NHOH = ON*
Legend:
HDAC1:MTA1 complex = target: T1, HDAC1:MTA1 complex (Homo sapiens, UniProt Q13330+Q13547); test: Activation of HDAC1:MTA1 deacetylase activity by inositol phosphates (BOC-Lys-AMC assay); format: biochemical; conditions: for Kd: read-out: Kdapp (apparent Kd from activation titration)
T1 construct: Full-length HDAC1 and residues 162–354 of MTA1 were cloned into pcDNA3 vectors; residues 162–354 of MTA1 were cloned into pcDNA3 vectors; FLAG tag with TEV protease cleavage site (cleaved yes); made in house; host or cells: HEK293F cells (co-transfection, pcDNA3)
Description: (§1) HDAC activity of the protein complex was measured using an HDAC assay with a BOC-Lys-AMC substrate. 50 nM HDAC3:SMRT or 50 nM HDAC1:MTA1 was incubated with 100 μM BOC-Lys-AMC substrate in a final volume of 50 μl buffer A (50 mM Tris pH 7.5, 50 mM NaCl, 5% Glycerol), in a black 96-well plate for 30 min at 37 °C.
(§2) To test the ability of inositol phosphates and derivatives to activate the complex, 50 nM HDAC3:SMRT (which had been stripped of its endogenous co-purified inositol phosphate) or 50 nM HDAC1:MTA1 was incubated with inositol phosphate or analogue for 30 min at 37 °C before the HDAC activity was measured. All measurements were performed in triplicate and data analysed using GraphPad Prism (version 6.0, GraphPad Software, Inc).

HDAC3:SMRT complex [1] = target: T2, HDAC3:SMRT complex (Homo sapiens, UniProt O15379+Q9Y618); test: Activation of HDAC3:SMRT deacetylase activity by inositol phosphates (BOC-Lys-AMC assay); format: biochemical; conditions: for Kd / HDAC3 activation relative to maximal Ins(1,4,5,6)P4-stimulated activity: BOC-Lys-AMC assay; for Kd: one-site binding fit of HDAC activity vs inositol phosphate concentration, read-out: Kdapp (apparent Kd from activation titration); for HDAC3 activation relative to maximal Ins(1,4,5,6)P4-stimulated activity: titration / maximal activation; for HDAC activity as percentage of maximal Ins(1,4,5,6)P4 activity: compound tested at 200 μM
T2 construct: Full-length HDAC3, and residues 350–480 of SMRT were cloned into pcDNA3 vectors; residues 350–480 of SMRT were cloned into pcDNA3 vectors; FLAG tag with TEV protease cleavage site (cleaved yes); made in house; host or cells: HEK293F cells (co-transfection, pcDNA3)
Description: (§3) To understand the stereochemical basis underlying the activation of HDAC3 by inositol phosphates we investigated the ability of a range of inositol phosphates and derivatives to enhance the activity of HDAC3 in deacetylase assays. To achieve this we used an assay based on the complex of HDAC3 with an extended SMRT construct which is stable in the absence of inositol phosphate.
as §1, §2

HDAC3:SMRT [2] = target: T3, HDAC3:SMRT (Homo sapiens, UniProt O15379+Q9Y618); test: Fluorescence anisotropy direct binding of 2-FAM-Ins(1,3,4,5,6)P5; conditions: inhibitor bound at the active site
Description: When required, assays were performed in the presence of HDAC inhibitor (20 mM final concentration). Plates were mixed by shaking for 1 s, and measurements taken using a Victor X5 plate reader (Perkin Elmer) at room temperature with an excitation wavelength of 480 nm and an emission wavelength of 535 nm. Experiments were performed in triplicate and data were analysed using GraphPad Prism (version 6.0), Kd values were calculated by nonlinear curve fitting using a one-site binding (hyperbola) model (Y=Bmax*X/(Kd+X).
HDAC1:MTA1 [3] = target: T4, HDAC1:MTA1 (Homo sapiens, UniProt Q13330+Q13547); test: Inhibition of HDAC1:MTA1 by peptide-based inhibitor; format: biochemical
T4 construct: Full-length HDAC1 and residues 162–354 of MTA1 were cloned into pcDNA3 vectors; residues 162–354 of MTA1 were cloned into pcDNA3 vectors; FLAG tag with TEV protease cleavage site (cleaved yes); made in house; host or cells: HEK293F cells (co-transfection, pcDNA3)

HDAC3:SMRT [4] = target: T3, HDAC3:SMRT; test: Fluorescence anisotropy displacement of 2-FAM-Ins(1,3,4,5,6)P5; format: binding; design: Full-length HDAC3, and residues 350–480 of SMRT were cloned into pcDNA3 vectors; residues 350–480 of SMRT were cloned into pcDNA3 vectors; FLAG tag with TEV protease cleavage site (cleaved yes); made in house; host or cells: HEK293F cells (co-transfection, pcDNA3); conditions: read-out: IC50 displacement of 2-FAM-Ins(1,3,4,5,6)P5; fluorescence anisotropy competition
Description: The concentration of protein was determined as that which gave 100% bound in the protein titration experiments. The data were analysed and IC50 values calculated using GraphPad Prism (version 6.0).

HDAC1:MTA1 [5] = target: T4, HDAC1:MTA1; test: Michaelis-Menten enzyme kinetics on Caliper EZ Reader with H4K16ac peptide; format: biochemical; conditions: H4 12–18K16ac peptide; in the presence of the inositol phosphate
Description: (§4) To explore further the differences between the two complexes we established a more physiological, real-time kinetic assay using substrates based on the tails of histones H4 and H3. The peptides tested were; H4 12–18(K16ac), H3 23–29(K27ac) and H3 6–12(K9ac). […] HDAC3:SMRT is most catalytically active against H3 23–29(K27ac) (Supplementary Fig. 7), whereas HDAC1:MTA1 is most catalytically active against H4 12–18(K16ac) (Fig. 4d). In both cases an approximate 3-fold greater kcat is observed for the preferred versus non-preferred substrate, in the absence of inositol phosphate. […] The net effect of both inositol phosphates tested was between a two and fivefold increase in catalytic efficiency (kcat/Km) (Fig. 4c,d, Supplementary Fig. 7).
(§5) Michaelis–Menten kinetics were determined using a HDAC assay on the Caliper EZ Reader II system (Caliper Life Sciences, http://www.caliperls.com). To assess the effect of inositol phosphate, 20 nM HDAC3:SMRT or 80 nM HDAC1:MTA1 were pre-mixed with InsP6 before dilution and addition of fluorescein-labelled H4K16Ac substrate. Reactions were carried out in duplicate in 30 μl reaction volumes, performed at room temperature in 50 mM Tris pH 7.5, 50 mM NaCl, 5% glycerol. Data was analysed using GraphPad Prism (version 6.0).

HDAC3:SMRT [6] = target: T3, HDAC3:SMRT; test: as above; format: biochemical; design: Full-length HDAC3, and residues 350–480 of SMRT were cloned into pcDNA3 vectors; residues 350–480 of SMRT were cloned into pcDNA3 vectors; FLAG tag with TEV protease cleavage site (cleaved yes); made in house; host or cells: HEK293F cells (co-transfection, pcDNA3); conditions: H4 12–18K16ac peptide; in the presence of the inositol phosphate
Description: as §4, §5

HDAC3:SMRT complex [7] = target: T5, HDAC3:SMRT complex (Homo sapiens, UniProt O15379); test: Activation of HDAC3:SMRT deacetylase activity by inositol phosphates (BOC-Lys-AMC assay); format: biochemical; conditions: BOC-Lys-AMC assay; one-site binding fit of HDAC activity vs inositol phosphate concentration; read-out: Kdapp (apparent Kd from activation titration)
T5 construct: Full-length HDAC3, and residues 350–480 of SMRT were cloned into pcDNA3 vectors; residues 350–480 of SMRT were cloned into pcDNA3 vectors; FLAG tag with TEV protease cleavage site (cleaved yes); made in house; host or cells: HEK293F cells (co-transfection, pcDNA3)
Description: as §3, §1, §2

T1 sequence (Q13547 whole entry, the tested form may be a part): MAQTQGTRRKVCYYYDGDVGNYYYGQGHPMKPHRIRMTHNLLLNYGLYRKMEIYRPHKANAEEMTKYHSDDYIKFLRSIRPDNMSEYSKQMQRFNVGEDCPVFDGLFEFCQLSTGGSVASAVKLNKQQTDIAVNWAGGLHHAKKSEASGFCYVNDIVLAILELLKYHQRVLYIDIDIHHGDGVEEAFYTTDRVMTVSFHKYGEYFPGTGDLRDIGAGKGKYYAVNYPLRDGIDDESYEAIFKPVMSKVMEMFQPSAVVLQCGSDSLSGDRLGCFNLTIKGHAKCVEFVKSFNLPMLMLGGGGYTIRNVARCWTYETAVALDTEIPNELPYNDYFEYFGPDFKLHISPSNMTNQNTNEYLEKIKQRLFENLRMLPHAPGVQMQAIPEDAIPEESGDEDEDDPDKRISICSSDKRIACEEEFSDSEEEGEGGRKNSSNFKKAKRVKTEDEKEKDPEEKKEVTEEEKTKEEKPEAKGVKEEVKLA
T1 sequence (Q13330 162-354): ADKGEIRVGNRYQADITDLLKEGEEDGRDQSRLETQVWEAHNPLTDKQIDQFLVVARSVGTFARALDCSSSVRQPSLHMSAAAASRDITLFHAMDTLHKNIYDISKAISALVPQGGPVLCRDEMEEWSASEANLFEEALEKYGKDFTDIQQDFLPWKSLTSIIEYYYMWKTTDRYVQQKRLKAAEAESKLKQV
T2 sequence (O15379 whole entry, the tested form may be a part): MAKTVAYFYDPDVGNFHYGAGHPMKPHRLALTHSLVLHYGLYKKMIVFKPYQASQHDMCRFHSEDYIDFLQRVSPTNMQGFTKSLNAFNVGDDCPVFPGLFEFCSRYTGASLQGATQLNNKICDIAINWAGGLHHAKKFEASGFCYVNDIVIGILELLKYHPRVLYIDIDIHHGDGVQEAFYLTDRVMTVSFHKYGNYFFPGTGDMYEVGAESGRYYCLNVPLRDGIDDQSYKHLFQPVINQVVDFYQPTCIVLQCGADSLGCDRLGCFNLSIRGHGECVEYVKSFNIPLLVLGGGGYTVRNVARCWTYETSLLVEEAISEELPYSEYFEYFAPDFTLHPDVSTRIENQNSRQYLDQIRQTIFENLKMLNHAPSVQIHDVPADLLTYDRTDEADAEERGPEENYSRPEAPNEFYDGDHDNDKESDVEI
T2 sequence (Q9Y618 350-480): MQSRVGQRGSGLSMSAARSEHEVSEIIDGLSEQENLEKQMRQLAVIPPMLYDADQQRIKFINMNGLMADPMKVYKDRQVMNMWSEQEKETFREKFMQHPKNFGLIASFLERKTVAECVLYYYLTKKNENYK
T3 sequence (O15379 whole entry): as the sequence (O15379 whole entry, the tested form may be a part) above
T3 sequence (Q9Y618 350-480): as the sequence (Q9Y618 350-480) above
T4 sequence (Q13547 whole entry, the tested form may be a part): as the sequence (Q13547 whole entry, the tested form may be a part) above
T4 sequence (Q13330 162-354): as the sequence (Q13330 162-354) above
T5 sequence (O15379 whole entry, the tested form may be a part): as the sequence (O15379 whole entry, the tested form may be a part) above
T5 sequence (Q9Y618 350-480, further chain): as the sequence (Q9Y618 350-480) above

SMILES: O=P(O)(O)OC1[C@@H](OP(=O)(O)O)[C@H](OP(=O)(O)O)C(O)[C@H](OP(=O)(O)O)[C@H]1OP(=O)(O)O (some centres unmarked)
- activation of HDAC1:MTA1 complex (HDAC1:MTA1 complex): can be activated
- Kd (HDAC1:MTA1 complex): 2.6 µM
- Kd (HDAC3:SMRT complex [1]): 5 µM
- HDAC3 activation relative to maximal Ins(1,4,5,6)P4-stimulated activity (HDAC3:SMRT complex [1]): same degree as Ins(1,4,5,6)P4
- increase in apparent affinity compared with Ins(1,4,5,6)P4 (HDAC3:SMRT complex [1]; ratio of apparent Kd values): twofold

SMILES: O=C(CP(=O)(O)O)O[C@@H]1[C@@H](OP(=O)(O)O)[C@H](OP(=O)(O)O)[C@H](O)[C@H](OP(=O)(O)O)[C@H]1OP(=O)(O)O [2-OH-5-PA-InsP4]
- HDAC activity as percentage of maximal Ins(1,4,5,6)P4 activity (HDAC3:SMRT complex [1]): completely inert

SMILES: O=P(O)(O)O[C@@H]1[C@@H](OP(=O)(O)OP(=O)(O)O)[C@H](OP(=O)(O)O)[C@@H](OP(=O)(O)O)[C@@H](O)[C@H]1OP(=O)(O)O [5-PP-InsP4]
- HDAC activity as percentage of maximal Ins(1,4,5,6)P4 activity (HDAC3:SMRT complex [1]): ~60%

SMILES: CC(=O)N[C@@H](CCCCN)C(=O)NCC(=O)NCC(=O)N[C@@H](C)C(=O)N[C@@H](CCCCCC(=O)NO)C(=O)N[C@@H](CCCNC(=N)N)C(=O)N[C@@H](Cc1c[nH]cn1)C(N)=O [H4K16Hx] (Ac-KGGA[Asu](NHOH)RH-NH2)
- enhancement of the binding of 2-FAM-Ins(1,3,4,5,6)P5 to the allosteric site by inhibitor (HDAC3:SMRT [2]): more modest effect
- IC50 (HDAC1:MTA1 [3]): 0.336 µM

SMILES: O=P(O)(O)OC1[C@H](O)[C@H](OP(=O)(O)O)C(OP(=O)(O)O)[C@H](OP(=O)(O)O)[C@H]1O (some centres unmarked) [Ins(1,3,4,5)P4]
- Kd (HDAC3:SMRT complex [1]): 13 µM
- HDAC3 activation relative to maximal Ins(1,4,5,6)P4-stimulated activity (HDAC3:SMRT complex [1]): greater than 75%

Now from value to molecule, other results behind:

- IC50 (HDAC3:SMRT [4]): 1.5 µM
SMILES: O=P(O)(O)O[C@@H]1C(O)[C@H](OP(=O)(O)O)[C@@H](OP(=O)(O)O)C(O)[C@H]1OP(=O)(O)O (some centres unmarked) [Ins(1,3,4,6)P4]
- HDAC3 activation relative to maximal Ins(1,4,5,6)P4-stimulated activity (HDAC3:SMRT complex [1]): unable to activate HDAC3; also recorded: do not activate the complex

- Kd (HDAC3:SMRT complex [1]): 30 µM
SMILES: O=P(O)(O)OC1C(O)C(OP(=O)(O)O)C(OP(=O)(O)O)C(OP(=O)(O)O)C1O (centres unmarked) [Ins(1,3,5,6)P4]

- IC50 (HDAC3:SMRT [4]): 19 µM
SMILES: O=P(O)(O)O[C@@H]1[C@H](O)[C@H](O)[C@@H](OP(=O)(O)O)[C@H](OP(=O)(O)O)[C@H]1O [Ins(1,4,5)P3]
- HDAC3 activation relative to maximal Ins(1,4,5,6)P4-stimulated activity (HDAC3:SMRT complex [1]): completely unable to activate HDAC3; also recorded: completely inert; also recorded: do not activate the complex

- kcat (HDAC1:MTA1 [5]): 0.90 s⁻¹
- Kd (HDAC1:MTA1 complex): 4.7 µM
- kcat (HDAC3:SMRT [6]): 2.72 s⁻¹
- Kd (HDAC3:SMRT complex [7]): 10 µM
SMILES: O=P(O)(O)O[C@@H]1[C@@H](OP(=O)(O)O)[C@H](OP(=O)(O)O)[C@@H](O)[C@@H](O)[C@H]1OP(=O)(O)O [Ins(1,4,5,6)P4, inositol 1,4,5,6-tetrakisphosphate]

— paper PMC4848466, “Insights into the activation mechanism of class I HDAC complexes by inositol phosphates” (Nature Communications, 2016)
